According to US20090215710A1, “CARBOHYDRATE BASED TOLL-LIKE RECEPTOR (TLR) ANTAGONISTS” (RELIANCE LIFE SCIENCES PVT. LTD., priority 2007, published 2009):

Tests used:
[1] = tested on: THP-1 cells; assay: MTT toxicity assay in THP-1 cells; assay type: cell-based, human
Source text: The toxicity of RSCL-0409 (FIG. 2b) was also by treating cells with RSCL-0409 by MTT assay. […] The viability of the cells (analyzed in tandem by MTT) was not affected by RSCL-0409 indicating its non-toxic nature.

[2] = tested on: NF-κB; assay: NF-κB activation and nuclear translocation in LPS stimulated THP-1 cells (FACS phospho p65, immunoblot); assay type: cell-based, human
Procedure: Further, for the detection of intracellular location of phospho NF-κB p65 subunits, 1 hr LPS-stimulated cells with and without pretreatment of RSCL-0409 (50 μM—FIG. 7b) were fixed with 4% paraformaldehyde in PBS for 30 min and washed with Fluorescence-activated cell sorting (FACS) buffer [2% Fetal calm serum (FCS) in 1× Phosphate buffered saline (PBS)]. Permeabilisation is done using 90% methanol. These cells were then treated with phospho p65 monoclonal antibody tagged with Alexa Fluor 488 (Cell Signaling Technology, Inc, Ma, USA) for 1 hr at 37° C., followed by washing FACS buffer. Cells were then resuspended in PBS and acquired in BD FACS Calibur.
The nuclear fractions were obtained from LPS stimulated THP-1 cells at the indicated times (FIG. 7c). Nuclear proteins electrophoresed were processed for immunoblots using a NF-κB specific antibody.

[3] = tested on: TLR related genes (TIRAP, IRAK1, IRAK4, TRAF6, TRIF); assay: mRNA expression of TLR related genes in LPS stimulated THP-1 cells (PCR); assay type: cell-based, human; conditions: THP-1, LPS 250 ng/ml 1 hr
Procedure: Serum-starved THP-1 cells were stimulated with LPS (250 ng/ml) for 1 hr in the presence and absence of RSCL-0409. Total RNA was isolated from treated cells post LPS exposure. The cDNA was used for PCR against specific primers for the TLR related genes and β-actin was used as internal control.
To rule out the possibility of a TRIF dependent pathway, a MyD88 independent path, we have checked its expression levels also in the treated cells.

[4] = tested on: NF-κB; assay: NF-κB SEAP reporter assay in THP-1 CD14 Blue cells; assay type: cell-based, human; conditions: LPS 250 ng/ml, 24 hr
Procedure: THP-1 CD14 Blue cells (Invivogen, San Diego, Calif., USA) transfected with a SEAP reporter construct in which the reporter expression was regulated by the NF-κB promoter were stimulated with LPS (250 ng/ml) with or without RSCL-0409 for 24 hr. […] The reporter activity was determined using Quanti Blue kit (Invivogen). The data (FIG. 8) is plotted as the relative change of reporter activity. NS; not significant, ** P value <0.01, *** P value <0.001 are statistics for Cells Vs RSCL-0409 treated and LPS treated vs. RSCL-0409 followed by LPS treatment respectively. These observations further confirm that the RSCL-0409 inhibits LPS induced TLR mediated activation of NF-κB transcription factor.

[5] = tested on: NEMO and IκB-α; assay: Immunoblot of NEMO and IκB-α in LPS stimulated THP-1 cells; assay type: cell-based, human; conditions: THP-1, LPS 250 ng/ml
Procedure: NF-κB/IκB complexes are present in the cytoplasm under unstimulated conditions. Following stimulation with LPS, we see phosphorylation and subsequent degradation of IκB allowing the free NF-κB to translocate into the nucleus to activate genes with NF-κB binding regions. Therefore, the effect of RSCL-0409 on blocking of NF-κB nuclear translocation was checked. Serum-starved THP-1 cells were stimulated with LPS (250 ng/ml) for the indicated time (FIG. 7a) in the presence and absence of RSCL-0409 ([…]). RSCL-0409 treatment was 1 hr prior to LPS treatment. Total protein was isolated from the treated cells, and an equal amount of protein from each sample was used for immunoblots to determine protein levels of NEMO and IκB-α. The blot was stripped and reprobed with an anti-ERK-1/2 antibody to ensure equal loading. […] This leads to inhibition of phosphorylation and further blocking p65 dissociation from IκB-α.

[6] = target: T1, TLR2 (Homo sapiens, UniProt O60603); assay: TLR2 ligand induced TNF-α secretion in THP-1 cells and PBMCs (ELISA); assay type: cell-based; conditions: TLR2 ligand 75 ng/ml, 1 hr pre-treatment, 24 hrs
T1 construct: endogenous in cells; host or cells: THP-1 monocytes and PBMCs
Procedure: The present invention has checked the effect of various TLR ligands on THP-1 monocytes, PBMCs and their ability to activate and release TNF-α. For this purpose about 9 TLR ligands were used. These ligands were obtained from Apotech Cat; APO-54N-018-K100 and assayed for TNF-α release in culture supernatants.
THP-1 and PBMCs (2×10^5 cells/well) were plated in 96-well plate. The cells were pretreated with RSCL-0409 in DMSO 1 hr prior to TLR ligand treatment. Following 1 hr pre-treatment, the cells were treated with TLR ligands [TLR2, TLR5 and TLR6-75 ng/ml each, TLR3-75 μg/ml, TLR4-750 ng/ml, TLR7, TLR8 and TLR9-7.5 μg/ml) for 24 hrs. The culture supernatant were collected after the stipulated time and assayed for TNF-α release using a Duoset Enzyme-Linked ImmunoSorbent Assay (ELISA) detection Kit (R&D systems, MN 55413, USA; Cat: DY-210 E). Simultaneously supernatants were collected from cells treated with ligands without pre-treatment with RSCL-0409 and only RSCL-0409 without ligand treatment.

T1 sequence (O60603 21-784): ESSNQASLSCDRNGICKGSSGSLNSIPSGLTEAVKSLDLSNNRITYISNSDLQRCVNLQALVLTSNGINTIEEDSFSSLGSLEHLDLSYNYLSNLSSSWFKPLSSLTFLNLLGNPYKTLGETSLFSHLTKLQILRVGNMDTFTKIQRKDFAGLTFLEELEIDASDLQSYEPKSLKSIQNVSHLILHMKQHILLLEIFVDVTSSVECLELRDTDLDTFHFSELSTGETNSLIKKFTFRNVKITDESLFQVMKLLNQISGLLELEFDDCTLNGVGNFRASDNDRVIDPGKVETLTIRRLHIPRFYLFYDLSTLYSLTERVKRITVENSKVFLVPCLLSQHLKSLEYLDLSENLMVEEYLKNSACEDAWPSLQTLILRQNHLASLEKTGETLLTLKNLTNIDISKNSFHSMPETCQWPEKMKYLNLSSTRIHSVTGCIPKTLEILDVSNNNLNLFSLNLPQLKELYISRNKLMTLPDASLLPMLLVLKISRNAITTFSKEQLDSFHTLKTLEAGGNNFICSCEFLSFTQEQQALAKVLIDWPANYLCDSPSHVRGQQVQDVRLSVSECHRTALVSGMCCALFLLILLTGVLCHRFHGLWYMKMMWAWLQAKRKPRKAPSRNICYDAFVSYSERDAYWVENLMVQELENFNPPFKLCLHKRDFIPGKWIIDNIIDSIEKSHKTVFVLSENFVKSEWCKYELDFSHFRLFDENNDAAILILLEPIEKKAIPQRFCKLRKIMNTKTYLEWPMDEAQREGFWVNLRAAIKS

COc1ccc(OC2OC3COC(c4ccccc4)OC3C(OC3OC(COC(=O)CCC(C)=O)C(OC(=O)CCl)C(OC(C)=O)C3OC(C)=O)C2NC(=O)C(Cl)(Cl)Cl)cc1 [RSCL-0409, p-Methoxy phenyl-O-(2,3-di-O-acetyl-4-O-chloroacetyl-6-O-levulinoyl-β-D-glucopyranosyl)-(1-3)-2-deoxy-2-trichloroacetamido-4,6-O-benzylidene-α-D-glucopyranoside]
viability of the cells (MTT) [1]: not affected | phospho NF-κB p65 (FACS) ([2]; THP-1, 1 hr LPS, 50 μM): inhibitory role in NF-κB signaling | translocation of NF-κB to the nucleus ([2]; nuclear fractions of LPS stimulated THP-1 cells): blocked translocation of NF-κB into the nucleus | TRIF mRNA levels [3]: remained unaffected | expression level of TRAF6 [3]: not down regulated significantly | mRNA expression levels of TIRAP, IRAK1 and IRAK4 [3]: inhibits the mRNA expression levels of TIRAP, IL-1R-associated kinase1 (IRAK1) and IRAK4 | SEAP reporter activity (NF-κB promoter) [4]: blocked in a dose dependent manner | activation of NEMO [5]: blocked signaling to NEMO | degradation of IκB-α [5]: accumulation of IκB-α | inhibition of TNF-α secretion ([6]; PBMC): ~46% | inhibition of TNF-α secretion ([6]; THP-1 cells): ~54%
